Laboratory results: patent publication US4250087A, “Carboxyl terminus analogs of β-endorphin” (Hoffmann-La Roche Inc., priority 1979, dated 1981)

Tests used:
[1] = tested on: rat brain receptor (opiate); test: Rat brain binding assay with tritiated βh-EP as primary ligand (Example 4); details: for IC50: 50% inhibiting concentration; for Relative Potency: receptor binding, βh-Endorphin = 100
Method: Opiate activity was measured in the rat brain binding assay in which tritiated βh -EP is used as primary ligand (Ferrara et al., Biochem. Biophys. Res. Comm. 89, 786 [1979]).

[2] = cited from earlier work
[3] = tested on: guinea pig ileum preparations; test: Opiate activity: depression of electrically-stimulated contractions of guinea pig ileum preparations; type: cell-based; details: for IC50: guinea pig ileum assay; for Relative Potency: guinea pig ileum, βh-Endorphin = 100
Method: (§1) Opiate activity was measured from the depression of electrically-stimulatedcontractions of guinea pig ileum preparations, see Kosterlitz et al., J. Pharmacol. 39, 398 (1970) and Doneen et al., Biochem. Biophys. Res. Commun. 74, 656 (1977). For analgesic assay, male ICR mice weighing 25-30 g (Simonsen Laboratories, Gilroy, CA) were used. Analgesic activity was assessed by the tail-flick method of D'Amour and Smith as described by Li et al., Biochem. Biophys. Res. Commun. 85, 795 (1978).

[4] = Analgesic assay, tail-flick method, intracerebroventricular injection; type: in vivo, male ICR mice; details: for Relative Potency: analgesic potency, βh-Endorphin = 100 (run in the same group); for AD50: intracerebroventricular injection, mice, tail-flick, 95% confidence limit in parentheses
Method: as §1
^a AD50 in nmole (95% confidence limit) by
intracerebroventricular injection.

opiate receptor = test: Opiate receptor binding assay, rat brain membrane fraction (Example 2); details: for IC50: 50% inhibiting concentration, [3H-Tyr27]-βh-EP as primary ligand; for Relative Potency: receptor binding, βh-Endorphin = 100
Method: The opiate receptor binding assay was performed by the method of Pasternak et al., Mol. Pharmacol. 11, 340 (1975) with modifications using a membrane fraction from rat brain homogenate. [^3 H-Tyr^27 ]-βh -EP was used as primary ligand and synthetic βh -EP as standard competing ligand.

[5] = tested on: guinea pig ileum preparations; details: βh-EP = 100; cited from earlier work
[6] = βh-EP = 100; cited from earlier work
[7] = tritiated βh-EP as primary ligand

Compound | IC50 [1, 7] | Relative Potency [1] | IC50 [3] | Relative Potency [3] | Relative Potency [4] | IC50 (opiate receptor) | Relative Potency (opiate receptor) | other results
[Gly^31 ]-βh -EP-Gly-Gly-NH2 [[Gly^31]-βh -EP--Gly--Gly--NH2] | 0.15 nM | 433 | – | – | – | – | – | potency in the binding assay relative to βh-EP (in words) [1]: over four times the potency of βh -EP
β-endorphin: the structure corresponding to positions 61-91 of β-lipotropin, namely β-endorphin (YGGFMTSEKSQTPLVTLFKNAIIKNAYKKGE; Beta-endorphin; UniProt P01189 237-267, looked up) | – | – | – | – | – | – | – | analgesic activity (in words) ([2]; intravenous route): potent analgesic activity by the intravenous route
[Gln^8, Gly^31 ]-βh -EP-Gly-Gly-NH2 [[Gln^8,Gly^31]-βh -Gly--Gly--NH2] | 0.07 nM | 929 | – | – | – | – | – | potency in the binding assay relative to βh-EP (in words) [1]: nine times that of βh -EP
[CH3 (CH2)4 NH2^31 ]-βh -EP [[CH(CH2)4 NH2^31]-βh -EP] | 0.33 nM | 197 | – | – | – | – | – | –
βh -Endorphin: synthetic βh -EP as standard competing ligand [reference compound] | 0.65 nM | 100 | 128 nM | 100 | 100 | 0.75 nM | 100 | –
[Gly^31 ]-βh -endorphinylglycine [[Gly^31]-βh -EP--Gly--OH] | – | – | 97 nM | 132 | 217 | 0.49 nM | 153 | AD50 [4]: 0.043 (0.031-0.057) nmole
[Gly^31 ]-βh -EP-Gly-NH2 [[Gly^31]-βh -EP--Gly--NH2] | 0.19 nM | 342 | – | – | – | – | – | activity in rat brain binding assay (in words) [1]: a further increase in activity
[Gly^31 ]-βh -endorphinamide [[Gly^31]-βh -EP--NH2] | – | – | 64 nM | 200 | 225 | 0.3 nM | 250 | AD50 [4]: 0.016 (0.008-0.032) nmole; potency in the receptor assay relative to the parent peptide (in words) (opiate receptor; Table 4): almost three times more potent
CSCC[C@H](NC(=O)[C@H](Cc1ccccc1)NC(=O)CNC(=O)CNC(=O)[C@@H](N)Cc1ccc(O)cc1)C(=O)O [methionine-enkephalin, reference compound] | – | – | – | – | – | – | – | activity in rat brain binding assay (in words) [1]: low activity; activity in rat brain binding assay, relative to βh-EP [1, 7]: 5 % of βh -EP
[Phe^27, Gly^31 ]-βh -EP | – | – | – | – | – | – | – | relative potency previously obtained, guinea pig ileum assay [5]: 128; relative potency previously obtained, in vivo assay [6]: 119; analgesic potency relative to the parent ([2]; intravenous assay route): about 1.48 times that of the parent
[Gly^31 ]-βh -EP | – | – | 76 nM | 168 | 83 | 0.59 nM | 127 | AD50 [4]: 0.077 (0.038-0.17) nmole
